According to ChEMBL document CHEMBL3352123, “Structure activity relationship study of curcumin analogues toward the amyloid-beta aggregation inhibitor” (Bioorg Med Chem Lett, 2014):
In brackets after ≈: the same amount, converted by molar mass.

How the values were obtained:
[1] = biological target: Amyloid-beta precursor protein (Homo sapiens) (UniProt P05067); experiment: Inhibition of amyloid beta-42 self-aggregation (unknown origin) at 25 uM after 20 hrs by ThT fluorescence assay
[2] = Aqueous solubility of the compound after 12 hrs by shake-flask method; assay type: physicochemical; settings: buffer

Chain of Amyloid-beta precursor protein (Homo sapiens) (P05067 whole entry): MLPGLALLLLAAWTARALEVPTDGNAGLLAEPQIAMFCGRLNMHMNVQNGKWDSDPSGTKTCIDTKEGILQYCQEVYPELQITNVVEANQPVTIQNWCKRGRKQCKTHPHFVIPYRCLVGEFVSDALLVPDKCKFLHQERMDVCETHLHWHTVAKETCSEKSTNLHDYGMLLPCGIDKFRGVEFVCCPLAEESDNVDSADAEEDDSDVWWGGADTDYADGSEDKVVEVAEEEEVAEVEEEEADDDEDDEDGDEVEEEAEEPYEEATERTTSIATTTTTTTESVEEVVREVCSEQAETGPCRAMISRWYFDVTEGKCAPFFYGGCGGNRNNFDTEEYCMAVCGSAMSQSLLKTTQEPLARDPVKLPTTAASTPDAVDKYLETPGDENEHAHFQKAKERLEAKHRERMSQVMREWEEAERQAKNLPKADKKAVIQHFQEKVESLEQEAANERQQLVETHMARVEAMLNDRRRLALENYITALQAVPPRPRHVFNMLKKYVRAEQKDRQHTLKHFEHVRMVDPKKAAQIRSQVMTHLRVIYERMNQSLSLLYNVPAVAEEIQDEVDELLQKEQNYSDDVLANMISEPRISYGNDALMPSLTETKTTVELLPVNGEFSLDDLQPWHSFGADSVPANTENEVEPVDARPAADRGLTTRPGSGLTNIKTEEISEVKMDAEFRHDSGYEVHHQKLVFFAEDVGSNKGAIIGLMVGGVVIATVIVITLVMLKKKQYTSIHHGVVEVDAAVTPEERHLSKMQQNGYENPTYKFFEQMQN

SMILES	inhibition [1]	solubility thermodynamic at 12 h [2]
COc1cc(/C=C/c2cc(/C=C/c3ccc(O)c(OC)c3)[nH]n2)ccc1O [CURCUMIN PYRAZOLE]	51%	1.2 µM (≈ 0.437 µg/mL)
O=C(/C=C/c1cc(O)c(O)c(O)c1)CC(=O)/C=C/c1ccccc1O	73%	47 µM (≈ 16 µg/mL)
COc1cccc(/C=C/C(=O)CC(=O)/C=C/c2ccc(O)c(O)c2)c1	95%	0.11 µM (≈ 0.0372 µg/mL)
COc1cc(/C=C/C(=O)C(C)(C)C(=O)/C=C/c2ccc(O)c(OC)c2)ccc1O	30%	12 µM (≈ 4.76 µg/mL)
O=C(/C=C/c1cc(O)c(O)c(O)c1)CC(=O)/C=C/c1cc(O)c(O)c(O)c1	46%	6.2 µM (≈ 2.31 µg/mL)
O=C(/C=C/c1ccc(O)c(O)c1)CC(=O)/C=C/c1cc(O)c(O)c(O)c1	100%	50 µM (≈ 17.8 µg/mL)
O=C(/C=C/c1cccc([N+](=O)[O-])c1)CC(=O)/C=C/c1ccc(O)c(O)c1	97%	–
COc1ccc(/C=C/C(=O)CC(=O)/C=C/c2ccc(O)c(O)c2)cc1	95%	0.009 µM (≈ 0.00305 µg/mL)
COc1ccccc1/C=C/C(=O)CC(=O)/C=C/c1ccc(O)c(O)c1	100%	0.12 µM (≈ 0.0406 µg/mL)
Oc1ccc(/C=C/c2cc(/C=C/c3ccccc3O)[nH]n2)cc1O	47%	16 µM (≈ 5.13 µg/mL)
Oc1cccc(/C=C/c2cc(/C=C/c3ccc(O)c(O)c3)n[nH]2)c1	–	10 µM (≈ 3.2 µg/mL)
Oc1ccc(/C=C/c2cc(/C=C/c3ccc(O)c(O)c3)[nH]n2)cc1O	90%	98 µM (≈ 33 µg/mL)
O=C(/C=C/c1cccc(O)c1)CC(=O)/C=C/c1ccc(O)c(O)c1	99%	6.2 µM (≈ 2.01 µg/mL)
O=C(/C=C/c1ccc(O)c(O)c1)CC(=O)/C=C/c1ccccc1O	100%	31 µM (≈ 10.1 µg/mL)
O=C(/C=C/c1ccc(O)cc1)CC(=O)/C=C/c1ccc(O)c(O)c1	89%	0.66 µM (≈ 0.214 µg/mL)
N#Cc1cccc(/C=C/C(=O)CC(=O)/C=C/c2ccc(O)c(O)c2)c1	96%	–
O=C(/C=C/c1ccc(O)c(O)c1)CC(=O)/C=C/c1ccc(O)c(O)c1 [DIDEMETHYLCURCUMIN]	99%	2.4 µM (≈ 0.817 µg/mL)
O=C(/C=C/c1ccccc1O)CC(=O)/C=C/c1ccccc1O	80%	–
COc1cc(/C=C/C(=O)CC(=O)/C=C/c2ccc(O)c(O)c2)cc(OC)c1OC	95%	–
COc1cc(/C=C/C(=O)CC(=O)/C=C/c2ccc(O)c(OC)c2)ccc1O [CURCUMIN]	80%	0.19 µM (≈ 0.07 µg/mL)
O=C(/C=C/c1ccc(O)cc1)CC(=O)/C=C/c1ccc(O)cc1	75%	–
COc1c(O)cc(/C=C/C(=O)CC(=O)/C=C/c2ccc(O)c(O)c2)cc1O	100%	5.4 µM (≈ 2 µg/mL)
O=C(/C=C/c1cccc(O)c1)CC(=O)/C=C/c1cccc(O)c1	79%	–
COc1ccc(/C=C/C(=O)/C=C(O)/C=C/c2ccc(OC)c(OC)c2)cc1OC	0%	–
